Test results taken from the NIST ThermoML archive (doi:10.1016/j.jct.2010.03.011).
± gives the expanded uncertainty stated by the source.

What was measured:
[1] = refractive index (Na D-line) (dimensionless); xn = mol fraction of the nth substance listed; conditions: 298.2 K, 101 kPa, Liquid, Standard Abbe refractometry
[2] = relative permittivity at various frequencies (dimensionless); xn = mol fraction of the nth substance listed; conditions: 298.2 K, 101.33 kPa, Liquid, Frequency=0.1 MHz, Parallel plate capacitor
[3] = xn = mol fraction of the nth substance listed; conditions: 298.2 K, 101 kPa, Liquid, Vibrating tube method
[4] = refractive index (Na D-line) (dimensionless); conditions: 298.2 K; 101.33 kPa; Liquid; Standard Abbe refractometry
[5] = 298.2 K; 101 kPa; Liquid; Vibrating tube method
[6] = relative permittivity at various frequencies (dimensionless); conditions: 298.2 K; 101.33 kPa; Liquid; Frequency=0.1 MHz

OCCCCO [1,4-butanediol] + CCCCC(CC)CO
refractive index ([1]; x1 = 1): 1.4447 ± 0.0005 | relative permittivity ([2]; x1 = 1): 31.539 ± 0.01 | mass density ([3]; x1 = 1): 1013.45 ± 0.9 kg/m3

CCCCC(CC)CO (stereo unspecified) [2-ethyl-1-hexanol]
refractive index [4]: 1.4293 ± 0.0005 | mass density [5]: 830.62 ± 0.68 kg/m3 | relative permittivity [6]: 7.611 ± 0.01

CC(O)CCO (stereo unspecified) [1,3-butanediol]
refractive index [4]: 1.4383 ± 0.0005 | mass density [5]: 1001.22 ± 0.87 kg/m3 | relative permittivity [6]: 28.692 ± 0.01

CC(O)C(C)O (stereo unspecified) [2,3-butanediol] + CCCCC(CC)CO
refractive index ([1]; x1 = 1): 1.4348 ± 0.0005 | relative permittivity ([2]; x1 = 1): 21.282 ± 0.01 | mass density ([3]; x1 = 1): 994.31 ± 0.86 kg/m3

CCCCC(CC)CO (stereo unspecified) [2-ethyl-1-hexanol] + OCCCCO
refractive index ([1]; x2 = 0.099): 1.4299 ± 0.0005 | refractive index ([1]; x2 = 0.25): 1.4313 ± 0.0005 | refractive index ([1]; x2 = 0.4): 1.4329 ± 0.0005 | refractive index ([1]; x2 = 0.5): 1.4343 ± 0.0005 | refractive index ([1]; x2 = 0.6): 1.4358 ± 0.0005 | refractive index ([1]; x2 = 0.649): 1.4368 ± 0.0005 | refractive index ([1]; x2 = 0.749): 1.439 ± 0.0005 | refractive index ([1]; x2 = 0.9): 1.4424 ± 0.0005 | relative permittivity ([2]; x2 = 0.099): 8.795 ± 0.031 | relative permittivity ([2]; x2 = 0.25): 11.008 ± 0.034 | relative permittivity ([2]; x2 = 0.4): 13.706 ± 0.04 | relative permittivity ([2]; x2 = 0.5): 15.945 ± 0.048 | relative permittivity ([2]; x2 = 0.6): 18.45 ± 0.05 | relative permittivity ([2]; x2 = 0.649): 19.741 ± 0.059 | relative permittivity ([2]; x2 = 0.749): 22.751 ± 0.063 | relative permittivity ([2]; x2 = 0.9): 27.546 ± 0.07 | mass density ([3]; x2 = 0.099): 840.72 ± 0.73 kg/m3 | mass density ([3]; x2 = 0.25): 858.3 ± 0.76 kg/m3 | mass density ([3]; x2 = 0.4): 881.5 ± 0.8 kg/m3 | mass density ([3]; x2 = 0.5): 897.59 ± 0.83 kg/m3 | mass density ([3]; x2 = 0.6): 916.55 ± 0.86 kg/m3 | mass density ([3]; x2 = 0.649): 926.55 ± 0.89 kg/m3 | mass density ([3]; x2 = 0.749): 948.41 ± 0.93 kg/m3 | mass density ([3]; x2 = 0.9): 984.92 ± 1 kg/m3

CC(O)CCO (stereo unspecified) [1,3-butanediol] + CCCCC(CC)CO
refractive index ([1]; x1 = 0.1): 1.4295 ± 0.0005 | refractive index ([1]; x1 = 0.25): 1.4301 ± 0.0005 | refractive index ([1]; x1 = 0.401): 1.431 ± 0.001 | refractive index ([1]; x1 = 0.501): 1.4318 ± 0.0005 | refractive index ([1]; x1 = 0.6): 1.4329 ± 0.0005 | refractive index ([1]; x1 = 0.649): 1.4334 ± 0.0005 | refractive index ([1]; x1 = 0.75): 1.4346 ± 0.0005 | refractive index ([1]; x1 = 0.9): 1.4367 ± 0.0005 | refractive index ([1]; x1 = 1): 1.4383 ± 0.0005 | relative permittivity ([2]; x1 = 0.1): 8.625 ± 0.028 | relative permittivity ([2]; x1 = 0.25): 10.605 ± 0.031 | relative permittivity ([2]; x1 = 0.401): 13.065 ± 0.037 | relative permittivity ([2]; x1 = 0.501): 15.056 ± 0.043 | relative permittivity ([2]; x1 = 0.6): 17.255 ± 0.048 | relative permittivity ([2]; x1 = 0.649): 18.524 ± 0.051 | relative permittivity ([2]; x1 = 0.75): 21.039 ± 0.055 | relative permittivity ([2]; x1 = 0.9): 25.228 ± 0.062 | relative permittivity ([2]; x1 = 1): 28.692 ± 0.01 | mass density ([3]; x1 = 0.1): 839.88 ± 0.72 kg/m3 | mass density ([3]; x1 = 0.25): 855.62 ± 0.75 kg/m3 | mass density ([3]; x1 = 0.401): 875.88 ± 0.78 kg/m3 | mass density ([3]; x1 = 0.501): 891.81 ± 0.82 kg/m3 | mass density ([3]; x1 = 0.6): 909.96 ± 0.85 kg/m3 | mass density ([3]; x1 = 0.649): 919.85 ± 0.87 kg/m3 | mass density ([3]; x1 = 0.75): 939.91 ± 0.91 kg/m3 | mass density ([3]; x1 = 0.9): 974.72 ± 0.97 kg/m3 | mass density ([3]; x1 = 1): 1001.22 ± 0.87 kg/m3

CC(O)C(C)O (stereo unspecified) [2,3-butanediol]
refractive index [4]: 1.4348 ± 0.0005 | mass density [5]: 994.31 ± 0.86 kg/m3 | relative permittivity [6]: 21.282 ± 0.01

CCCCC(CC)CO (stereo unspecified) [2-ethyl-1-hexanol] + CC(O)C(C)O
refractive index ([1]; x2 = 0): 1.4293 ± 0.0005 | refractive index ([1]; x2 = 0.1): 1.4294 ± 0.0005 | refractive index ([1]; x2 = 0.25): 1.4297 ± 0.0005 | refractive index ([1]; x2 = 0.401): 1.4301 ± 0.0005 | refractive index ([1]; x2 = 0.499): 1.4308 ± 0.0005 | refractive index ([1]; x2 = 0.55): 1.4311 ± 0.0005 | refractive index ([1]; x2 = 0.65): 1.4318 ± 0.0005 | refractive index ([1]; x2 = 0.75): 1.4324 ± 0.0005 | refractive index ([1]; x2 = 0.898): 1.4337 ± 0.0005 | relative permittivity ([2]; x2 = 0): 7.611 ± 0.01 | relative permittivity ([2]; x2 = 0.1): 8.197 ± 0.018 | relative permittivity ([2]; x2 = 0.25): 9.478 ± 0.022 | relative permittivity ([2]; x2 = 0.401): 11.075 ± 0.025 | relative permittivity ([2]; x2 = 0.499): 12.36 ± 0.03 | relative permittivity ([2]; x2 = 0.55): 13.125 ± 0.032 | relative permittivity ([2]; x2 = 0.65): 14.659 ± 0.034 | relative permittivity ([2]; x2 = 0.75): 16.407 ± 0.038 | relative permittivity ([2]; x2 = 0.898): 19.166 ± 0.04 | mass density ([3]; x2 = 0): 830.62 ± 0.68 kg/m3 | mass density ([3]; x2 = 0.1): 837.79 ± 0.72 kg/m3 | mass density ([3]; x2 = 0.25): 854.38 ± 0.75 kg/m3 | mass density ([3]; x2 = 0.401): 874.23 ± 0.78 kg/m3 | mass density ([3]; x2 = 0.499): 890.64 ± 0.81 kg/m3 | mass density ([3]; x2 = 0.55): 897.94 ± 0.83 kg/m3 | mass density ([3]; x2 = 0.65): 916.49 ± 0.86 kg/m3 | mass density ([3]; x2 = 0.75): 934.5 ± 0.89 kg/m3 | mass density ([3]; x2 = 0.898): 966.52 ± 0.96 kg/m3

CC(O)C(C)O (stereo unspecified) [2,3-butanediol] + C1COCCO1
refractive index ([1]; x1 = 0.03): 1.4205 ± 0.0005 | refractive index ([1]; x1 = 0.096): 1.4212 ± 0.0005 | refractive index ([1]; x1 = 0.19): 1.4223 ± 0.0005 | refractive index ([1]; x1 = 0.29): 1.4235 ± 0.0005 | refractive index ([1]; x1 = 0.38): 1.4249 ± 0.0005 | refractive index ([1]; x1 = 0.488): 1.4264 ± 0.0005 | refractive index ([1]; x1 = 0.6): 1.4281 ± 0.0005 | refractive index ([1]; x1 = 0.69): 1.4294 ± 0.0005 | refractive index ([1]; x1 = 0.82): 1.4316 ± 0.0005 | refractive index ([1]; x1 = 0.9): 1.433 ± 0.001 | relative permittivity ([2]; x1 = 0.03): 2.386 ± 0.016 | relative permittivity ([2]; x1 = 0.096): 2.798 ± 0.018 | relative permittivity ([2]; x1 = 0.19): 3.592 ± 0.023 | relative permittivity ([2]; x1 = 0.29): 4.778 ± 0.027 | relative permittivity ([2]; x1 = 0.38): 5.985 ± 0.033 | relative permittivity ([2]; x1 = 0.488): 7.881 ± 0.04 | relative permittivity ([2]; x1 = 0.6): 10.205 ± 0.045 | relative permittivity ([2]; x1 = 0.69): 12.277 ± 0.054 | relative permittivity ([2]; x1 = 0.82): 16.001 ± 0.059 | relative permittivity ([2]; x1 = 0.9): 18.397 ± 0.061

OCCCCO [1,4-butanediol] + C1COCCO1
refractive index ([1]; x1 = 0.029): 1.4207 ± 0.0005 | refractive index ([1]; x1 = 0.098): 1.422 ± 0.001 | refractive index ([1]; x1 = 0.2): 1.4243 ± 0.0005 | refractive index ([1]; x1 = 0.293): 1.4263 ± 0.0005 | refractive index ([1]; x1 = 0.4): 1.4288 ± 0.0005 | refractive index ([1]; x1 = 0.491): 1.4311 ± 0.0005 | refractive index ([1]; x1 = 0.6): 1.434 ± 0.001 | refractive index ([1]; x1 = 0.693): 1.4363 ± 0.0005 | refractive index ([1]; x1 = 0.8): 1.4392 ± 0.0005 | refractive index ([1]; x1 = 0.9): 1.4418 ± 0.0005 | relative permittivity ([2]; x1 = 0.029): 2.525 ± 0.026 | relative permittivity ([2]; x1 = 0.098): 3.353 ± 0.03 | relative permittivity ([2]; x1 = 0.2): 4.916 ± 0.035 | relative permittivity ([2]; x1 = 0.293): 6.656 ± 0.04 | relative permittivity ([2]; x1 = 0.4): 8.798 ± 0.047 | relative permittivity ([2]; x1 = 0.491): 11.193 ± 0.058 | relative permittivity ([2]; x1 = 0.6): 14.491 ± 0.067 | relative permittivity ([2]; x1 = 0.693): 17.889 ± 0.075 | relative permittivity ([2]; x1 = 0.8): 21.914 ± 0.084 | relative permittivity ([2]; x1 = 0.9): 26.541 ± 0.093

CC(O)CCO (stereo unspecified) [1,3-butanediol] + C1COCCO1
refractive index ([1]; x1 = 0.029): 1.4206 ± 0.0005 | refractive index ([1]; x1 = 0.098): 1.4217 ± 0.0005 | refractive index ([1]; x1 = 0.2): 1.4233 ± 0.0005 | refractive index ([1]; x1 = 0.293): 1.4251 ± 0.0005 | refractive index ([1]; x1 = 0.4): 1.4265 ± 0.0005 | refractive index ([1]; x1 = 0.491): 1.4282 ± 0.0005 | refractive index ([1]; x1 = 0.6): 1.4301 ± 0.0005 | refractive index ([1]; x1 = 0.693): 1.4319 ± 0.0005 | refractive index ([1]; x1 = 0.8): 1.4343 ± 0.0005 | refractive index ([1]; x1 = 0.9): 1.4362 ± 0.0005 | relative permittivity ([2]; x1 = 0.029): 2.488 ± 0.024 | relative permittivity ([2]; x1 = 0.098): 3.231 ± 0.027 | relative permittivity ([2]; x1 = 0.2): 4.644 ± 0.033 | relative permittivity ([2]; x1 = 0.293): 6.316 ± 0.039 | relative permittivity ([2]; x1 = 0.4): 8.425 ± 0.043 | relative permittivity ([2]; x1 = 0.491): 10.465 ± 0.052 | relative permittivity ([2]; x1 = 0.6): 13.528 ± 0.063 | relative permittivity ([2]; x1 = 0.693): 16.725 ± 0.071 | relative permittivity ([2]; x1 = 0.8): 20.583 ± 0.074 | relative permittivity ([2]; x1 = 0.9): 24.335 ± 0.076

OCCCCO [1,4-butanediol]
refractive index [4]: 1.4447 ± 0.0005 | mass density [5]: 1013.45 ± 0.9 kg/m3 | relative permittivity [6]: 31.539 ± 0.01
